Reference: patent US11279691B2, “Substituted pyridine and pyrazine compounds as PDE4 inhibitors” (Dart Neuroscience LLC, priority 2013, dated 2022)

Target: T1, PDE4D3 (Homo sapiens, UniProt Q08499)
T1 construct: GST
Type: biochemical
Details: GST-tagged PDE4D3, 200 nM FAM-cAMP, 11-point dose-response; read-out: PD4d3 pEC50 (converted)

T1 sequence (Q08499 1-673 isoform Q08499-2): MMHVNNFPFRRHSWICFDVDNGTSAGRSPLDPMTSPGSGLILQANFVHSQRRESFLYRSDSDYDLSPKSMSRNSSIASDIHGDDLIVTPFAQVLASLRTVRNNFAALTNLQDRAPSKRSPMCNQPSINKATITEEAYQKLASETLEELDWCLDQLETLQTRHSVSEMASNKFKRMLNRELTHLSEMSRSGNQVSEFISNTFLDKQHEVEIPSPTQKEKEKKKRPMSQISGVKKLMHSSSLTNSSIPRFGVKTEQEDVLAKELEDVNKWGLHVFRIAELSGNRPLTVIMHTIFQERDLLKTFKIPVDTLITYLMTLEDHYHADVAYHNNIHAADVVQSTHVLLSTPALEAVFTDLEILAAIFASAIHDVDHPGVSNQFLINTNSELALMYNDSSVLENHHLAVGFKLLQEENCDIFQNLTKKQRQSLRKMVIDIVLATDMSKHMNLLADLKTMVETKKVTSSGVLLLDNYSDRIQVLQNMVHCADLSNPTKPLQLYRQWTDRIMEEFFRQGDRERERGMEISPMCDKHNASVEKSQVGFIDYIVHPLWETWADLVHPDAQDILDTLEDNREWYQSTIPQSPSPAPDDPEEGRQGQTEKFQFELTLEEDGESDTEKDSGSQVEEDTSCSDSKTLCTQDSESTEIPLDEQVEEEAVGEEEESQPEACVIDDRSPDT

SMILES: NC(=O)Cc1ncc(Cc2cnc(OCC(F)F)c(-c3cccc(Cl)c3)c2)cn1 [Example 371, 2-(5-{[5-(3-Chlorophenyl)-6-(2,2-difluoroethoxy)pyridin-3-yl]methyl}pyrimidin-2-yl)acetamide]
- EC50: < 100 nM

SMILES: COc1ncc(Cn2cc(CO)nc2C)cc1-c1cccc(Cl)c1 [Example 346, (1-{[5-(3-Chlorophenyl)-6-methoxypyridin-3-yl]methyl}-2-methyl-1H-imidazol-4-yl)methanol]
- EC50: 100 to 1000 nM

SMILES: COc1ncc(Cn2nnc(CO)n2)cc1-c1cccc(Cl)c1 [Example 388, (2-{[5-(3-Chlorophenyl)-6-methoxypyridin-3-yl]methyl}-2H-1,2,3,4-tetrazol-5-yl)methanol]
- EC50: 100 to 1000 nM

SMILES: COc1ncc(Cc2cnc(N)nc2)cc1-c1ccc(F)c(C)c1 [Example 357, 5-{[5-(4-Fluoro-3-methylphenyl)-6-methoxypyridin-3-yl]methyl}pyrimidin-2-amine]
- EC50: 100 to 1000 nM

SMILES: CCOc1ncc(Cc2cnc(N)nc2)cc1-c1ccc(F)c(Cl)c1 [Example 279, 5-((5-(3-Chloro-4-fluorophenyl)-6-ethoxypyridin-3-yl)methyl)pyrimidin-2-amine]
- EC50: < 100 nM

SMILES: CCOc1ncc(Cn2nnc(C)n2)cc1-c1ccnc(OC(F)F)c1 [Example 394, 3-[2-(Difluoromethoxy)pyridin-4-yl]-2-ethoxy-5-[(5-methyl-2H-1,2,3,4-tetrazol-2-yl)methyl]pyridine]
- EC50: < 100 nM

SMILES: COc1ncc(Cc2cnc(N)nc2)cc1-c1ccc(F)c(Cl)c1 [Example 359, 5-{[5-(3-Chloro-4-fluorophenyl)-6-methoxypyridin-3-yl]methyl}pyrimidin-2-amine]
- EC50: < 100 nM

SMILES: COc1ncc(Cc2cnc(CC(N)=O)nc2)cc1-c1ccc(F)cc1 [Example 281, 2-(5-{[5-(4-Fluorophenyl)-6-methoxypyridin-3-yl]methyl}pyrimidin-2-yl)acetamide]
- EC50: < 100 nM

SMILES: CCOc1ncc(Cn2cnc(C(F)(F)F)n2)cc1-c1cccc(OC(F)F)c1 [Example 162, 3-[3-(Difluoromethoxy)phenyl]-2-ethoxy-5-{[3-(trifluoromethyl)-1H-1,2,4-triazol-1-yl]methyl}pyridine]
- EC50: 100 to 1000 nM

SMILES: CCOc1ncc(Cn2nc(C)cc2CO)cc1-c1cccc(Cl)c1 [Example 320, (1-{[5-(3-Chlorophenyl)-6-ethoxypyridin-3-yl]methyl}-3-methyl-1H-pyrazol-5-yl)methanol]
- EC50: > 10000 nM

SMILES: CCOc1ncc(Cn2cnc(C(N)=O)c2)nc1-c1cccc(Cl)c1 [Example 312, 1-{[6-(3-Chlorophenyl)-5-ethoxypyrazin-2-yl]methyl}-1H-imidazole-4-carboxamide]
- EC50: < 100 nM

SMILES: CCOc1ncc(Cn2ccc(C(N)=O)n2)nc1-c1cccc(Cl)c1 [Example 313, 1-{[6-(3-Chlorophenyl)-5-ethoxypyrazin-2-yl]methyl}-1H-pyrazole-3-carboxamide]
- EC50: 100 to 1000 nM

SMILES: CCOc1cc(-c2cc(Cc3cnc(CO)c(F)c3)cnc2OCC(F)F)ccn1 [Example 404, (5-{[6-(2,2-Difluoroethoxy)-5-(2-ethoxypyridin-4-yl)pyridin-3-yl]methyl}-3-fluoropyridin-2-yl)methanol]
- EC50: < 100 nM

SMILES: Cc1nc(CO)cn1Cc1cnc(OC(F)F)c(-c2cccc(Cl)c2)c1 [Example 321, (1-{[5-(3-Chlorophenyl)-6-(difluoromethoxy)pyridin-3-yl]methyl}-2-methyl-1H-imidazol-4-yl)methanol]
- EC50: 100 to 1000 nM

SMILES: CCOc1ncc(Cn2cnc(CO)n2)cc1-c1ccccc1F [Example 277, (1-((6-Ethoxy-5-(2-fluorophenyl)pyridin-3-yl)methyl)-1H-1,2,4-triazol-3-yl)methanol]
- EC50: > 10000 nM

SMILES: COc1ncc(Cc2cnc(O)nc2)cc1-c1cccc(Cl)c1 [Example 302, 5-((5-(3-Chlorophenyl)-6-methoxypyridin-3-yl)methyl)pyrimidin-2-ol]
- EC50: 1000 to 10000 nM

SMILES: COc1ncc(Cn2nnnc2CCO)cc1-c1cccc(Cl)c1 [Example 295, 2-(1-((5-(3-Chlorophenyl)-6-methoxypyridin-3-yl)methyl)-1H-tetrazol-5-yl)ethanol]
- EC50: 1000 to 10000 nM

SMILES: CCOc1ncc(Cn2nnnc2C)cc1-c1ccc(F)c(Cl)c1 [Example 398, 3-(3-Chloro-4-fluorophenyl)-2-ethoxy-5-[(5-methyl-1H-1,2,3,4-tetrazol-1-yl)methyl]pyridine]
- EC50: < 100 nM

SMILES: CCOc1ncc(Cn2cnc(CO)n2)cc1-c1cccc(OC(F)(F)F)c1 [Example 333, [1-({6-Ethoxy-5-[3-(trifluoromethoxy)phenyl]pyridin-3-yl}methyl)-1H-1,2,4-triazol-3-yl]methanol]
- EC50: 100 to 1000 nM

SMILES: COc1ncc(Cc2cnc(N3CCC(O)C3)nc2)cc1-c1cccc(Cl)c1 (stereo not shown) [Example 389, 1-(5-{[5-(3-Chlorophenyl)-6-methoxypyridin-3-yl]methyl}pyrimidin-2-yl)pyrrolidin-3-ol]
- EC50: 100 to 1000 nM

SMILES: CCOc1ncc(Cn2cnc(CO)n2)cc1-c1ccc(F)cc1 [Example 342, (1-{[6-Ethoxy-5-(4-fluorophenyl)pyridin-3-yl]methyl}-1H-1,2,4-triazol-3-yl)methanol]
- EC50: 100 to 1000 nM

SMILES: COc1ncc(Cc2cnc(C#N)nc2)nc1-c1cccc(OC(F)F)c1 [Example 107, 5-({6-[3-(Difluoromethoxy)phenyl]-5-methoxypyrazin-2-yl}methyl)pyrimidine-2-carbonitrile]
- EC50: 100 to 1000 nM

SMILES: CCCOc1ncc(Cc2cnc(N)nc2)cc1-c1ccc(F)c(F)c1 [Example 278, 5-((5-(3,4-Difluorophenyl)-6-propoxypyridin-3-yl)methyl)pyrimidin-2-amine]
- EC50: < 100 nM

SMILES: COc1ncc(Cc2cnc(N)cn2)cc1-c1ccc(F)c(Cl)c1 [Example 288, 5-((5-(3-Chloro-4-fluorophenyl)-6-methoxypyridin-3-yl)methyl)pyrazin-2-amine]
- EC50: < 100 nM

SMILES: COc1ncc(Cn2cc(CO)nc2C)cc1-c1ccnc(OC(F)F)c1 [Example 315, [1-({5-[2-(Difluoromethoxy)pyridin-4-yl]-6-methoxypyridin-3-yl}methyl)-2-methyl-1H-imidazol-4-yl]methanol]
- EC50: 100 to 1000 nM

SMILES: COc1ncc(Cc2cnc(N)nc2)cc1-c1ccc(F)cc1 [Example 360, 5-{[5-(4-Fluorophenyl)-6-methoxypyridin-3-yl]methyl}pyrimidin-2-amine]
- EC50: < 100 nM

SMILES: COc1ncc(Cc2cnc(C(N)=O)nc2)cc1-c1ccc(F)c(F)c1 [Example 373, 5-{[5-(3,4-Difluorophenyl)-6-methoxypyridin-3-yl]methyl}pyrimidine-2-carboxamide]
- EC50: 100 to 1000 nM

SMILES: COc1ncc(Cc2cnc(N)nc2)cc1-c1ccc(F)c(F)c1 [Example 362, 5-{[5-(3,4-Difluorophenyl)-6-methoxypyridin-3-yl]methyl}pyrimidin-2-amine]
- EC50: < 100 nM

SMILES: CCOc1ncc(Cc2cnc(N)nc2)cc1-c1ccc(F)c(F)c1 [Example 353, 5-{[5-(3,4-Difluorophenyl)-6-ethoxypyridin-3-yl]methyl}pyrimidin-2-amine]
- EC50: < 100 nM

SMILES: CCOc1ncc(Cn2cc(C(F)F)nc2C)nc1-c1cccc(Cl)c1 [Example 403, 3-(3-Chlorophenyl)-5-{[4-(difluoromethyl)-2-methyl-1H-imidazol-1-yl]methyl}-2-ethoxypyrazine]
- EC50: 100 to 1000 nM

SMILES: NC(=O)Cc1ncc(Cc2cnc(OCC(F)(F)F)c(-c3cccc(Cl)c3)c2)cn1 [Example 370, 2-(5-{[5-(3-Chlorophenyl)-6-(2,2,2-trifluoroethoxy)pyridin-3-yl]methyl}pyrimidin-2-yl)acetamide]
- EC50: 100 to 1000 nM

SMILES: CCOc1cnc(Cc2cnc(OC)c(-c3cccc(Cl)c3)c2)cn1 [Example 289, 2-((5-(3-Chlorophenyl)-6-methoxypyridin-3-yl)methyl)-5-ethoxypyrazine]
- EC50: 100 to 1000 nM

SMILES: COc1ncc(Cc2cnc(NCCO)cn2)cc1-c1cccc(Cl)c1 [Example 290, 2-((5-((5-(3-Chlorophenyl)-6-methoxypyridin-3-yl)methyl)pyrazin-2-yl)amino) ethanol]
- EC50: < 100 nM

SMILES: COc1ncc(Cc2cnc(CC(N)=O)nc2)cc1-c1cccc(Cl)c1 [Example 369, 2-(5-{[5-(3-Chlorophenyl)-6-methoxypyridin-3-yl]methyl}pyrimidin-2-yl)acetamide]
- EC50: < 100 nM
